Measured values: US12637424B2, “Pharmaceutical salt of an arylpyrrole derivative” (SENTINEL ONCOLOGY LIMITED, priority 2020, dated 2026)

Experiments:
Assay in all cases: DiscoverX KinomeScreen competition binding assay (kinase selectivity panel)
[1] = molecular target: T1, panel of ninety-seven kinases (Homo sapiens, UniProt O75116); conditions: ROCK2; screened at 3000 nM
T1 construct: purchased DiscoverX; host or cells: E. coli (BL21-derived, T7 phage display) or HEK-293
Experimental: (§1) This has been investigated by testing atropisomer A-2 for off-target activity against a panel of ninety-seven kinases distributed across the kinome at a concentration of 3 μM using the DiscoverX KinomeScreen assay. The DiscoverX KinomeScreen assay is a site-directed competition binding assay which measures the binding affinity of a compound to a kinase, by use of a solid supported control compound which can bind or capture the kinases in solution. In the absence of a kinase-inhibitor test compound, all of the kinase will bind to the solid support. If a kinase-inhibitor test compound is added to the assay mix, the amount of kinase binding to the solid support will be reduced, the extent of reduction being dependent on the potency of the test compound as a kinase inhibitor. […] For most assays, kinase-tagged T7 phage strains were grown in parallel in 24-well blocks in an E. coli host derived from the BL21 strain. E. coli were grown to log-phase and infected with T7 phage from a frozen stock (multiplicity of infection=0.4) and incubated with shaking at 32° C. until lysis (90-150 minutes). The lysates were centrifuged (6,000×g) and filtered (0.2 μm) to remove cell debris. The remaining kinases were produced in HEK-293 cells and subsequently tagged with DNA for qPCR detection. Streptavidin-coated magnetic beads were treated with biotinylated small molecule ligands for 30 minutes at room temperature to generate affinity resins for kinase assays. The liganded beads were blocked with excess biotin and washed with blocking buffer (SeaBlock (Pierce), 1% BSA, 0.05% Tween 20, 1 mM DTT) to remove unbound ligand and to reduce non-specific phage binding. […] Test compounds were prepared as 40× stocks in 100% DMSO and directly diluted into the assay. All reactions were performed in polypropylene 384-well plates in a final volume of 0.02 ml. […] The beads were then re-suspended in elution buffer (1×PBS, 0.05% Tween 20, 0.5 μM non-biotinylated affinity ligand) and incubated at room temperature with shaking for 30 minutes. The kinase concentration in the eluates was measured by qPCR. Compounds that bind the kinase active site and directly (sterically) or indirectly (allosterically) prevent kinase binding to the immobilized ligand, will reduce the amount of kinase captured on the solid support. […] The strength of binding of the test molecule to the kinase can be expressed as the percent control (% Ctrl) The compound(s) were screened at 3000 nM concentration, and results for primary screen binding interactions are reported as ‘% Ctrl’, where lower numbers indicate stronger hits in the matrix on the following page(s). [formula] • negative control=DMSO (100% Ctrl) • positive control=control compound (0% Ctrl)

[2] = molecular target: T2, panel of ninety-seven kinases (Homo sapiens, UniProt P08069); conditions: IGF1R; screened at 3000 nM
T2 construct: purchased DiscoverX; host or cells: E. coli (BL21-derived, T7 phage display) or HEK-293
Experimental: as §1

[3] = molecular target: T3, panel of ninety-seven kinases (Homo sapiens, UniProt Q9UM73); conditions: ALK; screened at 3000 nM
T3 construct: purchased DiscoverX; host or cells: E. coli (BL21-derived, T7 phage display) or HEK-293
Experimental: as §1

[4] = molecular target: T4, panel of ninety-seven kinases (Homo sapiens, UniProt Q9H093); conditions: NUAK2; screened at 3000 nM
T4 construct: purchased DiscoverX; host or cells: E. coli (BL21-derived, T7 phage display) or HEK-293
Experimental: as §1

[5] = molecular target: T5, panel of ninety-seven kinases (Homo sapiens, UniProt P08581); conditions: MET; screened at 3000 nM
T5 construct: purchased DiscoverX; host or cells: E. coli (BL21-derived, T7 phage display) or HEK-293
Experimental: as §1

[6] = molecular target: T6, panel of ninety-seven kinases (Homo sapiens, UniProt O00750); conditions: PIK3C2B; screened at 3000 nM
T6 construct: purchased DiscoverX; host or cells: E. coli (BL21-derived, T7 phage display) or HEK-293
Experimental: as §1

[7] = molecular target: T7, panel of ninety-seven kinases (Homo sapiens, UniProt P22607); conditions: FGFR3; screened at 3000 nM
T7 construct: purchased DiscoverX; host or cells: E. coli (BL21-derived, T7 phage display) or HEK-293
Experimental: as §1

[8] = molecular target: T8, panel of ninety-seven kinases (Homo sapiens, UniProt P04049); conditions: RAF1; screened at 3000 nM
T8 construct: purchased DiscoverX; host or cells: E. coli (BL21-derived, T7 phage display) or HEK-293
Experimental: as §1

[9] = molecular target: T9, panel of ninety-seven kinases (Homo sapiens, UniProt P31749); conditions: AKT1; screened at 3000 nM
T9 construct: purchased DiscoverX; host or cells: E. coli (BL21-derived, T7 phage display) or HEK-293
Experimental: as §1

[10] = molecular target: T10, panel of ninety-seven kinases (Homo sapiens, UniProt P12931); conditions: SRC; screened at 3000 nM
T10 construct: purchased DiscoverX; host or cells: E. coli (BL21-derived, T7 phage display) or HEK-293
Experimental: as §1

[11] = molecular target: T11, panel of ninety-seven kinases (Homo sapiens, UniProt Q9UPE1); conditions: SRPK3; screened at 3000 nM
T11 construct: purchased DiscoverX; host or cells: E. coli (BL21-derived, T7 phage display) or HEK-293
Experimental: as §1

[12] = molecular target: T12, panel of ninety-seven kinases (Homo sapiens, UniProt P30530); conditions: AXL; screened at 3000 nM
T12 construct: purchased DiscoverX; host or cells: E. coli (BL21-derived, T7 phage display) or HEK-293
Experimental: as §1

[13] = molecular target: T13, panel of ninety-seven kinases (Homo sapiens, UniProt P04629); conditions: NTRK1; screened at 3000 nM
T13 construct: purchased DiscoverX; host or cells: E. coli (BL21-derived, T7 phage display) or HEK-293
Experimental: as §1

[14] = molecular target: T14, panel of ninety-seven kinases (Homo sapiens, UniProt O15530); conditions: PDPK1; screened at 3000 nM
T14 construct: purchased DiscoverX; host or cells: E. coli (BL21-derived, T7 phage display) or HEK-293
Experimental: as §1

[15] = molecular target: T15, panel of ninety-seven kinases (Homo sapiens, UniProt P07333); conditions: CSF1R; screened at 3000 nM
T15 construct: purchased DiscoverX; host or cells: E. coli (BL21-derived, T7 phage display) or HEK-293
Experimental: as §1

[16] = molecular target: T16, panel of ninety-seven kinases (Homo sapiens, UniProt Q9BVS4); conditions: RIOK2; screened at 3000 nM
T16 construct: purchased DiscoverX; host or cells: E. coli (BL21-derived, T7 phage display) or HEK-293
Experimental: as §1

[17] = molecular target: T17, panel of ninety-seven kinases (Homo sapiens, UniProt P49137); conditions: MAPKAPK2; screened at 3000 nM
T17 construct: purchased DiscoverX; host or cells: E. coli (BL21-derived, T7 phage display) or HEK-293
Experimental: as §1

[18] = molecular target: T18, panel of ninety-seven kinases (Homo sapiens, UniProt Q06187); conditions: BTK; screened at 3000 nM
T18 construct: purchased DiscoverX; host or cells: E. coli (BL21-derived, T7 phage display) or HEK-293
Experimental: as §1

[19] = molecular target: T19, panel of ninety-seven kinases (Homo sapiens, UniProt Q13177); conditions: PAK2; screened at 3000 nM
T19 construct: purchased DiscoverX; host or cells: E. coli (BL21-derived, T7 phage display) or HEK-293
Experimental: as §1

[20] = molecular target: T20, panel of ninety-seven kinases (Homo sapiens, UniProt Q9H4B4); conditions: PLK3; screened at 3000 nM
T20 construct: purchased DiscoverX; host or cells: E. coli (BL21-derived, T7 phage display) or HEK-293
Experimental: as §1

[21] = molecular target: T21, panel of ninety-seven kinases (Homo sapiens, UniProt P43403); conditions: ZAP70; screened at 3000 nM
T21 construct: purchased DiscoverX; host or cells: E. coli (BL21-derived, T7 phage display) or HEK-293
Experimental: as §1

[22] = molecular target: T22, panel of ninety-seven kinases (Homo sapiens, UniProt P07949); conditions: RET; screened at 3000 nM
T22 construct: purchased DiscoverX; host or cells: E. coli (BL21-derived, T7 phage display) or HEK-293
Experimental: as §1

T22 sequence (P07949 29-1114): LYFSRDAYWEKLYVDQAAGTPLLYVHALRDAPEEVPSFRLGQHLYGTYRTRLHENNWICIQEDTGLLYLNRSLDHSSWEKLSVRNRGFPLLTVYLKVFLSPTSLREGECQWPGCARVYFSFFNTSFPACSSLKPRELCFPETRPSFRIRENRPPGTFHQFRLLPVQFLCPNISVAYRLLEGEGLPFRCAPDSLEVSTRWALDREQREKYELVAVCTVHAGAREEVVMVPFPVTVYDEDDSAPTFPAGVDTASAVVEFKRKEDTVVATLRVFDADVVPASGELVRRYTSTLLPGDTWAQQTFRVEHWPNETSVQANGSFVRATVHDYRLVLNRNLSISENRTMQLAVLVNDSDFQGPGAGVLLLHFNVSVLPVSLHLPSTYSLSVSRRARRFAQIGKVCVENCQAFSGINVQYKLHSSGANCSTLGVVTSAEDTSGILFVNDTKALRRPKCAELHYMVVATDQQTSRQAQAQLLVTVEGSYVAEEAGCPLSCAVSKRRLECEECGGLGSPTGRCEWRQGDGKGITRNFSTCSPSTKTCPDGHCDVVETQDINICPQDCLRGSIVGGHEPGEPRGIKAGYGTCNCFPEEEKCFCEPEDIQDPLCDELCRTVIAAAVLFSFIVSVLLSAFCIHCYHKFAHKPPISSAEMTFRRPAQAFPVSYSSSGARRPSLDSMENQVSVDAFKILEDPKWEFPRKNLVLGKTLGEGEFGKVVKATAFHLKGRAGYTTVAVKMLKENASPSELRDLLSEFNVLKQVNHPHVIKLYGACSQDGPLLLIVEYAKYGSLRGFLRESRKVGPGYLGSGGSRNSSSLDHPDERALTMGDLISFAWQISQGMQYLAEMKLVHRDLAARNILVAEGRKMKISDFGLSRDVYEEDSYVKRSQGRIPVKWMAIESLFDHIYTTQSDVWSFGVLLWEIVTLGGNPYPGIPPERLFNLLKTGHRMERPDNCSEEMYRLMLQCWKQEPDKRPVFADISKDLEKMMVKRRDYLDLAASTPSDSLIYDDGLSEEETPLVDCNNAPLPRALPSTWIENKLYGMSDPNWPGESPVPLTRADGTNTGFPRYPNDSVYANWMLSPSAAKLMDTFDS
T19 sequence (Q13177 whole entry): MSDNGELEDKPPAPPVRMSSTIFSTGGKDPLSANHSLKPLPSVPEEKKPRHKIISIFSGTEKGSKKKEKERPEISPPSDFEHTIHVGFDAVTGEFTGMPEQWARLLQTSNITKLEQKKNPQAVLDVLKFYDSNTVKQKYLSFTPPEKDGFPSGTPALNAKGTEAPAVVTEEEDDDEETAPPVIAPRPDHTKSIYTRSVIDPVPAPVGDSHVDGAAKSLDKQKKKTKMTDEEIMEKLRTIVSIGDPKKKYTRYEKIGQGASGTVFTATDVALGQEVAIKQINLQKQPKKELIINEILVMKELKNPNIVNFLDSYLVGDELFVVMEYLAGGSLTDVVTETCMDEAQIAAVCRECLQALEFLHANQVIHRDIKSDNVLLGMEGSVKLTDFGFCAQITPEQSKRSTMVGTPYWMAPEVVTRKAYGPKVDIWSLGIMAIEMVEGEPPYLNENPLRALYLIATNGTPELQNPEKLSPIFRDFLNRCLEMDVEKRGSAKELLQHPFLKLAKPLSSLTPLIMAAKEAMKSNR
T5 sequence (P08581 25-1390): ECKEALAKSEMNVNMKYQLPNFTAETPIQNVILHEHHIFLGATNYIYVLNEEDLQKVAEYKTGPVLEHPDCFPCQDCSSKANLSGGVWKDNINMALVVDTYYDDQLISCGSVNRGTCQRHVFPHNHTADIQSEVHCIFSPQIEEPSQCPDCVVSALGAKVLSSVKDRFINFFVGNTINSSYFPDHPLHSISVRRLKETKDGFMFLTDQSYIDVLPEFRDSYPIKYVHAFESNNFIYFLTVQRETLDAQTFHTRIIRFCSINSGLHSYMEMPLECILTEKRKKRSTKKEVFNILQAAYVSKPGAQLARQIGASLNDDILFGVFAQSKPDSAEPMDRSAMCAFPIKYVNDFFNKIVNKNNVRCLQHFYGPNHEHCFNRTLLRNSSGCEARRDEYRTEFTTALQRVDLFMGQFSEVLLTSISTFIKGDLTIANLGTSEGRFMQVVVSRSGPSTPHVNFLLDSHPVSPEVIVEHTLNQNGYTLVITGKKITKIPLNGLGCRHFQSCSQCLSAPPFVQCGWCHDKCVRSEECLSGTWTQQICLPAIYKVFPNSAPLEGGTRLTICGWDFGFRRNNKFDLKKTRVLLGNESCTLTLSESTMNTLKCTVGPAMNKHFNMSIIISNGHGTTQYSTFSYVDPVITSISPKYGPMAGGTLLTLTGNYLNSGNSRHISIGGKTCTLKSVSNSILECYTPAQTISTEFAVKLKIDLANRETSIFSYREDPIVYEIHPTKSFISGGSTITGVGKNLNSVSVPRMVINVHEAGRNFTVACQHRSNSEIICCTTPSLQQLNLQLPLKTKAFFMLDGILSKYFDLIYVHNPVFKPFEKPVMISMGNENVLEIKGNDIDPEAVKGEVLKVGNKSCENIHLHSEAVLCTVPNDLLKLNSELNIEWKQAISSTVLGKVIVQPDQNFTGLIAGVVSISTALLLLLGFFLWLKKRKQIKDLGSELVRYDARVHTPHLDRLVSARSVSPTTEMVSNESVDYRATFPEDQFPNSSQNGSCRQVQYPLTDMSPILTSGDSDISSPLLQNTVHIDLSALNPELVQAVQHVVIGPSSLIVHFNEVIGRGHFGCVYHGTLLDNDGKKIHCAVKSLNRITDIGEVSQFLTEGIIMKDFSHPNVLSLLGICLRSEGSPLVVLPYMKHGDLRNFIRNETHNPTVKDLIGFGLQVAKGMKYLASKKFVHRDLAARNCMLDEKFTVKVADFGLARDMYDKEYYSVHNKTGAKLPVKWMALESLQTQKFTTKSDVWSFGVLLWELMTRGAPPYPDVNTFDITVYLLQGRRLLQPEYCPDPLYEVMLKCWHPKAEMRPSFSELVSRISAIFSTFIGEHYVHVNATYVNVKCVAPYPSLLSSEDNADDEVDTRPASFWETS
T4 sequence (Q9H093 whole entry): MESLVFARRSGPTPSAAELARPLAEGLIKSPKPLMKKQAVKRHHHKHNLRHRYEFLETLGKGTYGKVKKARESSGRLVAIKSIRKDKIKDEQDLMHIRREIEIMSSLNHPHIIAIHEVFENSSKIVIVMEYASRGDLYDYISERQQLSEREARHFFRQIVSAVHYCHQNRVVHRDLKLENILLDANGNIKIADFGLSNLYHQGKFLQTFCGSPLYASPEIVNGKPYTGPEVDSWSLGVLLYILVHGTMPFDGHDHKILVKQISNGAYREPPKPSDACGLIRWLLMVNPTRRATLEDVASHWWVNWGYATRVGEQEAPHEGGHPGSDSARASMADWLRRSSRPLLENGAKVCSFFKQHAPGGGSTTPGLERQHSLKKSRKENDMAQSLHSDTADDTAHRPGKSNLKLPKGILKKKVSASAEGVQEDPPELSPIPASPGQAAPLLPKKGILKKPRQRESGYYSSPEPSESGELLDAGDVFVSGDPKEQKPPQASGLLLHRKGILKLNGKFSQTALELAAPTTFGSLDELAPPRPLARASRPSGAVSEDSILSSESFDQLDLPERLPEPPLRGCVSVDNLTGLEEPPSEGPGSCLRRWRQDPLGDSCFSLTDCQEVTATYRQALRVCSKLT
T8 sequence (P04049 whole entry): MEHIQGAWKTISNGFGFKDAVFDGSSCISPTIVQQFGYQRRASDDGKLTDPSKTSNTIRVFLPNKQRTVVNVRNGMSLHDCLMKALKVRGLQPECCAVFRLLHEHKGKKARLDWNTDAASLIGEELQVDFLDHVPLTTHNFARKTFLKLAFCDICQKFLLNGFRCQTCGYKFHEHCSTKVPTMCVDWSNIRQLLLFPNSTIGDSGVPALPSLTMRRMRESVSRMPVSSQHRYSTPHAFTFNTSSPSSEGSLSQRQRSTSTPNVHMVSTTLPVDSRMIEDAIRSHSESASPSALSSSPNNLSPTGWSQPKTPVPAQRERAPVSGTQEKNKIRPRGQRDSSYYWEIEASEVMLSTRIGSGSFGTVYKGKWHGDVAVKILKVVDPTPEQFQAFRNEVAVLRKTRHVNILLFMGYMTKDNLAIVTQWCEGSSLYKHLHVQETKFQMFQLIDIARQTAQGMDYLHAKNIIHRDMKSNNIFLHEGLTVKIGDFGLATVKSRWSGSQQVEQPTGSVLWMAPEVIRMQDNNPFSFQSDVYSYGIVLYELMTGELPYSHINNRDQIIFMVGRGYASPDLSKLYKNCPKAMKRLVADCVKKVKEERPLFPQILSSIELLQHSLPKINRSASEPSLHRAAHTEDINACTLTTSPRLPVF
T21 sequence (P43403 whole entry): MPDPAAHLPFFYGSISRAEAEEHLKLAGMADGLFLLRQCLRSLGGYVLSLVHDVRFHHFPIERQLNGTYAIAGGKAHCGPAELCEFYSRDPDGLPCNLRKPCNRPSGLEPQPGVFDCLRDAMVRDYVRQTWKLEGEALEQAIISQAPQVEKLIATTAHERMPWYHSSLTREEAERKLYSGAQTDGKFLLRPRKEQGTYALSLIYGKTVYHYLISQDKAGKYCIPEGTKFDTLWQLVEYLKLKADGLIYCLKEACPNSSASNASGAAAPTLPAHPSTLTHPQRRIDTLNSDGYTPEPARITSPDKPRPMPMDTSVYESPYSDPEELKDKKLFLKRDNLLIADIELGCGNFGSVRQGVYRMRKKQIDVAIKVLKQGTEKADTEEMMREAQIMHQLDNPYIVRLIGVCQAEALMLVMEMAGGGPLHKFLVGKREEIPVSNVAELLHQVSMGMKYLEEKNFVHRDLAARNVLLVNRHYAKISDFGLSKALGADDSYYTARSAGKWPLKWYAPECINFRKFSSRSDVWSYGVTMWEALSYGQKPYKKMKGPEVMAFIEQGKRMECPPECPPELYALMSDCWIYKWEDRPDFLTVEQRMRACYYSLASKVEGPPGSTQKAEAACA

CN(C)CCNC(=O)c1ccc(-c2ccc(-c3ccc(Cl)cc3)n2-c2ccccc2C(F)(F)F)cc1 (single isomer, unassigned) [Atropisomer A-2]
% Ctrl @ 3 μM [1]: 88 % Ctrl | % Ctrl @ 3 μM [2]: 100 % Ctrl | % Ctrl @ 3 μM [3]: 89 % Ctrl | % Ctrl @ 3 μM [4]: 99 % Ctrl | % Ctrl @ 3 μM [5]: 100 % Ctrl | % Ctrl @ 3 μM [6]: 100 % Ctrl | % Ctrl @ 3 μM [7]: 92 % Ctrl | % Ctrl @ 3 μM [8]: 92 % Ctrl | % Ctrl @ 3 μM [9]: 98 % Ctrl | % Ctrl @ 3 μM [10]: 100 % Ctrl | % Ctrl @ 3 μM [11]: 71 % Ctrl | % Ctrl @ 3 μM [12]: 93 % Ctrl | % Ctrl @ 3 μM [13]: 100 % Ctrl | % Ctrl @ 3 μM [14]: 96 % Ctrl | % Ctrl @ 3 μM [15]: 100 % Ctrl | % Ctrl @ 3 μM [16]: 100 % Ctrl | % Ctrl @ 3 μM [17]: 75 % Ctrl | % Ctrl @ 3 μM [18]: 94 % Ctrl | % Ctrl @ 3 μM [19]: 100 % Ctrl | % Ctrl @ 3 μM [20]: 87 % Ctrl | % Ctrl @ 3 μM [21]: 92 % Ctrl | % Ctrl @ 3 μM [22]: 95 % Ctrl
